{
  "source": "patent US10814612B2",
  "about": "“Use of thiazolide compounds for the prevention and treatment of viral diseases, cancer and diseases caused by intracellular infections” (priority 2011, dated 2020)",
  "key": {"[1]": {"tested_on": "rotavirus gastroenteritis, norovirus gastroenteritis and chronic hepatitis C", "settings": "clinical trials; cited from earlier work"}, "[2]": {"tested_on": "RNA and DNA viruses including influenza A and hepatitis C viruses", "settings": "cited from earlier work"}, "[3]": {"tested_on": "CD14+ cells (monocytes)", "assay_type": "cell-based, human"}, "[4]": {"tested_on": "Toll-Like Receptor signalling pathway", "assay": "TLR pathway Real-time PCR array (84 genes) in PBMC", "assay_type": "cell-based, human", "settings": "3 hours"}, "[5]": {"tested_on": "Type I interferon signalling pathway", "assay": "Type I interferon pathway Real-time PCR array (84 genes) in PBMC", "assay_type": "cell-based, human"}, "[6]": {"tested_on": "CD4+ T cells", "assay": "T helper functions: IFNγ- and IL2-secreting CD4+ T cells", "assay_type": "cell-based, human", "settings": "for IFN-γ production by CD4+ T cells: 0.5 μg/ml"}, "[7]": {"tested_on": "CD8+ T cells", "assay": "CTL activity: perforin-, granzyme- and Fas-expressing CD8+ T cells", "assay_type": "cell-based, human", "settings": "for percentage of Fas-expressing CD8+ T cells: 20 and 40 μg/ml"}, "[8]": {"settings": "humans, cited from earlier work"}, "[9]": {"settings": "all five doses, unstimulated and flu-stimulated"}, "[10]": {"settings": "flu-stimulated PBMC, all doses tested"}, "[11]": {"settings": "flu-stimulated PBMC, 3 hours, 1 μg/ml"}, "[12]": {"settings": "PMBCs, TIZ 0.5, 1.0 and 10 mg/ml, FIG. 3A"}, "[13]": {"settings": "after oral nitazoxanide or nitazoxanide plus tizoxanide"}},
  "note": "Where two headings read alike, the source gives them in different places.",
  "data": [
    {"smiles": "CC(=O)Oc1ccccc1C(=O)Nc1ncc([N+](=O)[O-])s1", "note": "[Nitazoxanide, 2-(acetolyloxy)-N-(5-nitro-2-thiazolyl) benzamide]", "values": [
      {"measurement": "effectiveness in treating chronic hepatitis C", "setting": "[1]", "value": "effective"},
      {"measurement": "effectiveness in treating norovirus gastroenteritis", "setting": "[1]", "value": "effective"},
      {"measurement": "effectiveness in treating rotavirus gastroenteritis", "setting": "[1]", "value": "effective"},
      {"measurement": "replication of RNA and DNA viruses including influenza A and hepatitis C viruses", "setting": "[2]", "value": "inhibit replication"}
    ]},
    {"smiles": "O=C(Nc1ncc(Cl)s1)c1ccccc1O", "note": "[RM-4848, N-(5-chlorothiazol-2-yl)-2-hydroxybenzamide]", "values": [
      {"measurement": "TLR3-expressing CD14+ cells", "setting": "[3]; [9]", "value": "no effect"},
      {"measurement": "TLR8-expressing CD14+ cells", "setting": "[3]; [9]", "value": "no effect"},
      {"measurement": "percentage of TLR7-expressing CD14+ cells compared to control", "setting": "[3]; flu-antigenic stimulation, 1.0 μg/ml dose: p=0.001, 10 μg/ml dose: p=0.023", "value": "increase"},
      {"measurement": "percentage of TLR7-expressing CD14+ cells compared to control", "setting": "[3]; unstimulation condition", "value": "no significative differences"},
      {"measurement": "INFA1 mRNA fold increase", "setting": "[4]; flu-stimulated PBMC, 1 μg/ml", "value": "~6", "unit": "fold"},
      {"measurement": "INFB1 mRNA fold increase", "setting": "[4]; flu-stimulated PBMC, 1 μg/ml", "value": "~6", "unit": "fold"},
      {"measurement": "TLR3 mRNA fold increase", "setting": "[4]; flu-stimulated PBMC, 1 μg/ml", "value": "~7", "unit": "fold"},
      {"measurement": "TLR5 mRNA fold increase", "setting": "[4]; flu-stimulated PBMC, 1 μg/ml", "value": "~7", "unit": "fold"},
      {"measurement": "TLR9 mRNA fold increase", "setting": "[4]; flu-stimulated PBMC, 20 μg/ml", "value": "~6", "unit": "fold"},
      {"measurement": "TLR8 mRNA fold change", "setting": "[4]; [10]", "value": "> 2", "unit": "fold"},
      {"measurement": "TLR-7 mRNA fold change", "setting": "[4]; [10]", "value": "> 2", "unit": "fold"},
      {"measurement": "IL1A mRNA fold increase", "setting": "[4]; un-stimulated PBMC, 20 μg/ml", "value": "~5", "unit": "fold"},
      {"measurement": "IL1B mRNA fold increase", "setting": "[4]; un-stimulated PBMC, 20 μg/ml", "value": "~5", "unit": "fold"},
      {"measurement": "IL6 mRNA fold increase", "setting": "[4]; un-stimulated PBMC, 20 μg/ml", "value": "~6", "unit": "fold"},
      {"measurement": "IFI27 mRNA fold increase", "setting": "[5]; flu-stimulated PBMC, 10 μg/ml", "value": "> 4", "unit": "fold"},
      {"measurement": "IFIT1 mRNA fold increase", "setting": "[5]; flu-stimulated PBMC, 10 μg/ml", "value": "> 4", "unit": "fold"},
      {"measurement": "IFNA2 mRNA fold increase", "setting": "[5]; [11]", "value": 6, "unit": "fold"},
      {"measurement": "INFA1 mRNA fold increase", "setting": "[5]; [11]", "value": 10, "unit": "fold"},
      {"measurement": "INFA4 mRNA fold increase", "setting": "[5]; [11]", "value": 10, "unit": "fold"},
      {"measurement": "INFB1 mRNA fold increase", "setting": "[5]; [11]", "value": 8, "unit": "fold"},
      {"measurement": "expression of the ISGs, IFI27 and IFIT1", "setting": "[5]; flu-stimulated PBMC, the three dose levels (1, 10, 20 μg/ml)", "value": "moderately up-regulated"},
      {"measurement": "Type I IFN inducible genes (CD70, COL16A1, HSPA1L, IFI27, IFIT1, NRG1 and SHB)", "setting": "[5]; summary of Examples 4-8", "value": "upregulated"},
      {"measurement": "INFA1 mRNA fold decrease", "setting": "[5]; un-stimulated PBMC, 20 μg/ml", "value": 20, "unit": "fold"},
      {"measurement": "INFA2 mRNA fold decrease", "setting": "[5]; un-stimulated PBMC, 20 μg/ml", "value": 15, "unit": "fold"},
      {"measurement": "INFA4 mRNA fold decrease", "setting": "[5]; un-stimulated PBMC, 20 μg/ml", "value": 10, "unit": "fold"},
      {"measurement": "INFB1 mRNA fold decrease", "setting": "[5]; un-stimulated PBMC, 20 μg/ml", "value": 15, "unit": "fold"},
      {"measurement": "down-regulating effects on interferon genes", "setting": "[5]; un-stimulated PBMC, two lower doses of 1 and 10 μg/ml", "value": "not seen"},
      {"measurement": "IFN-γ production by CD4+ T cells", "setting": "[6]; Flu-stimulated conditions, p=0.050", "value": "statistically significant upregulation"},
      {"measurement": "IFN-γ production by CD4+ T cells", "setting": "[6]; un-stimulated cells, p=0.035", "value": "statistically significant upregulation"},
      {"measurement": "percentage of Fas-expressing CD8+ T cells", "setting": "[7]; Flu-stimulated, p=0.003", "value": "statistically significantly increased"},
      {"measurement": "degranulation of CTLs, evaluated by reduction in perforin expression", "setting": "[7]; three higher dose levels tested", "value": "induced a degranulation"},
      {"measurement": "percentage of Fas-expressing CD8+ T cells", "setting": "[7]; un-stimulated, p=0.006", "value": "statistically significantly increased"}
    ]},
    {"smiles": "O=C(Nc1ncc([N+](=O)[O-])s1)c1ccccc1O", "note": "[Tizoxanide]", "values": [
      {"measurement": "TLR3- expression on monocytes", "setting": "[3]", "value": "increase"},
      {"measurement": "TLR7- expression on monocytes", "setting": "[3]", "value": "increase"},
      {"measurement": "TLR8- expression on monocytes", "setting": "[3]", "value": "increase"},
      {"measurement": "IFNα-mRNA expression", "setting": "[5]; [12]", "value": "increase"},
      {"measurement": "IFNβ-mRNA expression", "setting": "[5]; [12]", "value": "increase"},
      {"measurement": "mRNA specific for type I IFN inducible genes (MXA, PRKCZ, ADAR, CXCL10, IRF1, PRKRA)", "setting": "[5]; PMBCs, TIZ 0.5, 1.0 and 10 mg/ml, FIG. 3B", "value": "increase"},
      {"measurement": "mRNA specific for gene involved in MHC class I presentation (HLA-A, HLA-B, TAP1)", "setting": "[5]; PMBCs, TIZ 0.5, 1.0 and 10 mg/ml, FIG. 3C", "value": "increase"},
      {"measurement": "IFNγ-secreting CD4+ T cells", "setting": "[6]; PMBCs, TIZ 0.5, 1.0 and 10 mg/ml, unstimulated and flu-stimulated, FIG. 4A", "value": "increase"},
      {"measurement": "IL2-secreting CD4+ T cells", "setting": "[6]; PMBCs, TIZ 0.5, 1.0 and 10 mg/ml, unstimulated and flu-stimulated, FIG. 4B", "value": "increase"},
      {"measurement": "CTL degranulation", "setting": "[7]; PMBCs, TIZ 0.5, 1.0 and 10 mg/ml, FIG. 5B", "value": "increase"},
      {"measurement": "Fas-expressing CD8+ T cells", "setting": "[7]; PMBCs, TIZ 0.5, 1.0 and 10 mg/ml, FIG. 5C", "value": "increase"},
      {"measurement": "replication of RNA and DNA viruses including influenza A and hepatitis C viruses", "setting": "[2]", "value": "inhibit replication"},
      {"measurement": "half-life in plasma", "setting": "[8]; [13]", "value": "approximately 1.5 hours"},
      {"measurement": "urinary elimination half-life", "setting": "[8]; [13]", "value": 7.3, "unit": "h"},
      {"measurement": "plasma protein binding", "setting": "[8]", "value": "bound to plasma proteins"}
    ]}
  ]
}
